Data published in ChEMBL document CHEMBL5042526, “Design, Synthesis, and Biological Evaluation of Triazolone Derivatives as Potent PPARα/δ Dual Agonists for the Treatment of Nonalcoholic Steatohepatitis” (J Med Chem, 2022).
The source made the active and inactive calls. The calls are words filed in the database; no cut-off is given here.

How the values were obtained:
[1] = molecular target: T1, Nuclear receptor subfamily 1 group I member 2 (Homo sapiens, UniProt O75469); test: Agonist activity at human PXR (138 to 434 residues) in Cos7 cells transfected with LBD-Gal4 and pGL435 Gal4 UAS Luc reporter plasmid at 10 uM by reporter gene assay; assay type: cell-based; conditions: cos7, 10 µM
T1 sequence (O75469 whole entry): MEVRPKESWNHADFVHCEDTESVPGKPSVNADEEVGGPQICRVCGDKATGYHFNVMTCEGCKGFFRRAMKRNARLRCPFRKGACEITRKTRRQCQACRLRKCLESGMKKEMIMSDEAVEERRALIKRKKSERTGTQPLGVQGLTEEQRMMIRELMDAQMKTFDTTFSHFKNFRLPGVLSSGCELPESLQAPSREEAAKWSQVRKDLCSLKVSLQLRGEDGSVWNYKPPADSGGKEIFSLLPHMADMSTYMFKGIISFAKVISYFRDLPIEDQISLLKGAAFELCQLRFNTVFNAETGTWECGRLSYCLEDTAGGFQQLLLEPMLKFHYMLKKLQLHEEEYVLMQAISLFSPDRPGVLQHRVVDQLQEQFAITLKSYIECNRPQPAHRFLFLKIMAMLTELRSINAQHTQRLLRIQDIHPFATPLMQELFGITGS

Mus musculus [2] = test: Anti-inflammatory activity in HF-CDAA-induced nonalcoholic steatohepatitis C57BL/6JNifdc mouse model assessed as decrease in Adgre1 mRNA expression at 10 mg/kg, po; assay type: functional, organism-based
Mus musculus [3] = test: In vivo agonist activity at PPARalpha/delta assessed as upregulation of Retsat-mRNA expression in C57BL/6Nifdc mouse liver at 10 mg/kg, po for 4 days; assay type: functional, organism-based; conditions: time 4.0 day
[4] = molecular target: T2, Peroxisome proliferator-activated receptor gamma (Mus musculus, UniProt P37238); test: Agonist activity at mouse PPARgamma in Cos7 cells transfected with pBIND and pGL4.35 Gal4 UAS Luc reporter plasmid by measuring luciferase activity incubated for 16 hrs by luciferase reporter gene assay
T2 sequence (P37238 whole entry): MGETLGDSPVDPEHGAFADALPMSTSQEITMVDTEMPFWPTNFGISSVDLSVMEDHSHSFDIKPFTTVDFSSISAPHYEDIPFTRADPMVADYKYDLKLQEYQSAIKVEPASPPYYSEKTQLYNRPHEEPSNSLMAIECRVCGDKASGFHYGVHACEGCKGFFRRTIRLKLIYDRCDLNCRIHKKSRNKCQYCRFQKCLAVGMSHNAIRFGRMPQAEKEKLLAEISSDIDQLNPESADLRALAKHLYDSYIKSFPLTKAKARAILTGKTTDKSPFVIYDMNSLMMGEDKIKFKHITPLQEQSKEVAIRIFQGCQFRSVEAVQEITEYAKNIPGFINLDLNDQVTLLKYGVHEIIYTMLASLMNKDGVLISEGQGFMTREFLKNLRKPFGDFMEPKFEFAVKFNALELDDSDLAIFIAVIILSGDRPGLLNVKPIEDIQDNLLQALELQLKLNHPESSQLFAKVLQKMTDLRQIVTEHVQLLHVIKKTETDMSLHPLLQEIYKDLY

Mus musculus [5] = test: In vivo agonist activity against PPARalpha/delta assessed as upregulation of Hadn-mRNA expression in C57BL/6Nifdc mouse liver at 10 mg/kg, po for 4 days; assay type: functional, organism-based; conditions: time 4.0 day
Mus musculus [6] = test: In vivo agonist activity at PPARalpha/delta assessed as upregulation of Kit11 mRNA expression in C57BL/6Nifdc mouse liver at 10 mg/kg, po for 4 days; assay type: functional, organism-based; conditions: time 4.0 day
Mus musculus [7] = test: In vivo agonist activity at PPARalpha/delta assessed as upregulation of Lpf5 mRNA expression in C57BL/6Nifdc mouse liver at 10 mg/kg, po for 4 days; assay type: functional, organism-based; conditions: time 4.0 day
C2C12 = test: Agonist activity against PPARalpha/delta (unknown origin) assessed as upregulation of Angpt14 mRNA expression in […] cells incubated for 12 hrs by RT-PCR analysis; assay type: cell-based; conditions: filed as agonist, dose 8-200 nM
Mus musculus [8] = test: In vivo agonist activity against PPARalpha/delta assessed as upregulation of Ucp3 mRNA expression in C57BL/6Nifdc mouse skeletal muscle at 10 mg/kg, po for 4 days; assay type: functional, organism-based; conditions: time 4.0 day
Mus musculus [9] = test: In vivo agonist activity against PPARalpha/delta assessed as upregulation of Pdk4 mRNA expression in C57BL/6Nifdc mouse liver at 10 mg/kg, po for 4 days; assay type: functional, organism-based; conditions: time 4.0 day
Mus musculus [10] = test: In vivo agonist activity against PPARalpha/delta assessed as upregulation of Vnn1 mRNA expression in C57BL/6Nifdc mouse liver at 10 mg/kg, po for 4 days; assay type: functional, organism-based; conditions: time 4.0 day
Mus musculus [11] = test: In vivo agonist activity at PPARalpha/delta assessed as upregulation of Mfn2 mRNA expression in C57BL/6Nifdc mouse liver at 10 mg/kg, po for 4 days; assay type: functional, organism-based; conditions: time 4.0 day

`Cc1cc(Cn2ncn(-c3ccc(OC(F)(F)F)cc3)c2=O)cc(C)c1OC(C)(C)C(=O)O` was tested, and the Activity [1] was “Not Active”, the Activity (Mus musculus [2]) was “Active” and the Activity (Mus musculus [3]) was “Active”. For the same molecule, the EC50 [4] was 1.01 µM, the Activity (Mus musculus [5]) was “Active” and the Activity (Mus musculus [6]) was “Active”. The Activity (Mus musculus [7]) was “Active”, the Activity (C2C12) was “Dose-Dependent Effect” and the Activity (Mus musculus [8]) was “Active”. For the same molecule, the Activity (Mus musculus [9]) was “Active”, the Activity (Mus musculus [10]) was “Active” and the Activity (Mus musculus [11]) was “Active”.
